Reference: US20230088214A1, “GLYCOLATE OXIDASE INHIBITORS FOR THE TREATMENT OF DISEASE” (BIOMARIN PHARMACEUTICAL INC., priority 2019, published 2023)
pIC50: −log10 of the molar value.

Legend:
[1] = target: T1, GO (Homo sapiens, UniProt Q9UJM8); test: GO Cellular Assay: CHO-Agt Cells Assay (Assay 3); assay type: cell-based, Chinese hamster; parameters: host or cells: CHO cells (A.T.C.C. CCl-61) and engineered CHO-Agt cells (from Fargue/Danpure); settings: 100 uM glycolic acid, glyoxylate by LC-MS at 2 hours, read-out: Range of IC50 values calculated from the cellular assays (Assay 3)
T1 sequence (Q9UJM8 1-370): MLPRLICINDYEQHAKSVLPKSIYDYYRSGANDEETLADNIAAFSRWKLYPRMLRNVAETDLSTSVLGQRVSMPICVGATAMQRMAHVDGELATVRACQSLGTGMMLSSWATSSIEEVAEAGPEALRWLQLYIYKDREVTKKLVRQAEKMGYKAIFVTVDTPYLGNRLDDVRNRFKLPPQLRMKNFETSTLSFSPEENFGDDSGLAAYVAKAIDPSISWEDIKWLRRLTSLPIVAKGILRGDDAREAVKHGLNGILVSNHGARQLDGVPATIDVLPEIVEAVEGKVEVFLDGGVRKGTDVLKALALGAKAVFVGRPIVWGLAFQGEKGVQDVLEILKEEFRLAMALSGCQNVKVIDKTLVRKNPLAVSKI
Description: Assay 3: GO Cellular Assay: CHO-Agt Cells Assay
CHO cells (A.T.C.C. number CCl-61) and engineered CHO-Agt cells (provided by Dr. Sonia Fargue and Dr. Christopher J. Danpure, Biochem. J. (2006) 394, 409-416) were used as a screening cellular assay for primary compounds. The cells were seeded in 20,000 cell/well in 96 well plate and cultured at 37-C under O2/CO2 (19:1) in Ham's F12 medium (Invitrogen) supplemented with fetal calf serum (10%, v/v), L-glutamine (2 mM), penicillin (100 units/ml) and streptomycin (100 pug/ml). After overnight culture, the cells were treated with various concentrations of inhibitors in the presence of 100 uM glycolic acid in HEPES buffer, pH7.0 (Sigma-Aldrich, Cat #124737). Culture medium was harvested at 2 hours after treatment for glyoxylate analysis and cell viability was measured by Cell Titer-Glo (Fisher Scientific, Cat #. PR-G7570).
The glyoxylate was quantified using LC-MS method. An aliquot of 120 μL medium was removed from each well and protein precipitated by adding 240 μL IS (100 ng/ml 13C2-glyoxylic acid, Sigma-Aldrich, Cat #G755002). The mixture was vortex-mixed well and centrifuged at 3900 rpm for 15 min, 4° C. 100 μL supernatant was then mixed with 10 μL formic acid and 100 μL 400 μM DNPH (2,4-dinitrophenylhydrazine) (Shanghai Runjie Huaxue Shiji Ltd., Cat #A0000436) and the mixture was shaken for 30 minutes. A 3 μL mixture of reaction mixture was injected for LC-MS/MS analysis. (Behnam J T, Williams E L, Brink S, Rumsby G, Danpure C J., “Reconstruction of human hepatocyte glyoxylate metabolic pathways in stably transformed Chinese-hamster ovary cells”, Biochem J. 2006 Mar. 1; 394 (Pt 2):409-16.)

[2] = target: T2, GO (Mus musculus, UniProt Q9WU19); test: GO Cellular Assay: Primary Hepatocyte Assay (Assay 2); assay type: cell-based; settings: primary mouse hepatocytes, 5 mM glycolate, oxalate at 72 hours; read-out: Range of IC50 values calculated from the cellular assays (Assay 2)
T2 construct: endogenous in cells; host or cells: primary hepatocytes from male C56BL/6 (so in the source) mouse liver
T2 sequence (Q9WU19 1-370): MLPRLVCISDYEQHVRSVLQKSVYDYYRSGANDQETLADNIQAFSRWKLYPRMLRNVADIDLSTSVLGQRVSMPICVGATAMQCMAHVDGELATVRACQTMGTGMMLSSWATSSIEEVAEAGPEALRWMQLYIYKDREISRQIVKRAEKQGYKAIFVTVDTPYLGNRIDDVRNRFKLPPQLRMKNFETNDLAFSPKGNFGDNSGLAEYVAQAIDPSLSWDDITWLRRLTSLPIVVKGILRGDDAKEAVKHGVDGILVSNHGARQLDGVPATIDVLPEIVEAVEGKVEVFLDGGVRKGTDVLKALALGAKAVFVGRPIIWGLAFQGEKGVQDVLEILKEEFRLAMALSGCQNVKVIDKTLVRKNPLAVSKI
Description: Assay 2: GO Cellular Assay: Primary Hepatocyte Assay
Primary hepatocytes were used for a GO cellular assay as previously described (Martin-Higueras et al., Mol Ther. 24(4): 719-725 (2016)). Hepatocytes were isolated using an in situ collagenase perfusion method from male C56BL/6 mice liver. The freshly isolated hepatocytes were cultured in six well plates with Williams E medium supplemented with 5% fetal bovine serum, 2 mM 1-glutamine, 100 U/ml penicillin, 100 μg/ml streptomycin, 2.2 mUI/ml insulin and 0.3 μg/ml hydrocortisone. After 5 hours, the medium was changed to Williams E complete medium (Biochrom, Cambridge, UK) without serum and cells were treated with various concentrations of inhibitors in the presence of 5 mM glycolate. Culture medium was harvested at 72 hours after treatment, and the oxalate was quantified by using an oxalate oxidase assay kit (Trinity Biotech, Co Wicklow, Ireland) following manufacturer's instructions. The oxalate level was also confirmed by LC-MS method. The IC50 value for each measured compound was generated from sigmoidal dose-response (variable slope) curves with GraphPad Prism software (GraphPad Software, Inc., San Diego, Calif.) using the percent inhibition of GO activity relative to DMSO control.

[3] = target: T1, GO; test: GO Enzymatic Assay (Assay 1); assay type: biochemical; parameters: purchased Novus Biologicals NBP1-72412; settings: Table 4; class symbols without asterisk, GO Enzymatic Assay (Assay 1); read-out: Range
Description: Assay 1: GO Enzymatic Assay
GO was incubated with its substrate, glycolate, in 50 mM potassium phosphate buffer, pH 7. […] The enzyme was optimized and the kinetics was determined.
Compound inhibition was determined by adding various concentrations of inhibitors in the GO enzyme assay. The IC50 value for each measured compound was generated from sigmoidal dose-response (variable slope) curves with GraphPad Prism software (GraphPad Software, Inc., San Diego, Calif.) using the percent inhibition of GO activity relative to DMSO control.

Compound | pIC50 [1] | pIC50 [2] | pIC50 [3]
CCOC(=O)c1[nH]nnc1Sc1nc(-c2ccc(Cl)c(Cl)c2)cs1 [Compound 1, ethyl 4-((4-(3,4-dichlorophenyl)thiazol-2-yl)thio)-1H-1,2,3-triazole-5-carboxylate] | < 5.00 |  | 
O=C(OC1CC1)c1[nH]nnc1Oc1ccc2cc(Br)ccc2c1 [Compound 110, cyclopropyl 4-((6-bromonaphthalen-2-yl)oxy)-1H-1,2,3-triazole-5-carboxylate] | 5.30 to 6.00 |  | 
CC(C)OC(=O)OCOC(=O)c1[nH]nnc1O[C@H]1CC[C@H](c2ccc(OC(F)(F)F)cc2)CC1 [Compound 302, ((isopropoxycarbonyl)oxy)methyl 4-(((trans)-4-(4-(trifluoromethoxy)phenyl)cyclohexyl)oxy)-1H-1,2,3-triazole-5-carboxylate] | > 6.00 |  | 
CCN(CC)C(=O)OCOC(=O)c1[nH]nnc1O[C@H]1CC[C@H](c2ccc(OC(F)(F)F)cc2)CC1 [Compound 370, ((diethylcarbamoyl)oxy)methyl 4-(((trans)-4-(4-(trifluoromethoxy)phenyl)cyclohexyl)oxy)-1H-1,2,3-triazole-5-carboxylate] |  | > 6.00 | 
CC(C)C(=O)OCCOC(=O)c1[nH]nnc1O[C@H]1CC[C@H](c2ccc(OC(F)(F)F)cc2)CC1 [Compound 371, 2-(isobutyryloxy)ethyl 4-(((trans)-4-(4-(trifluoromethoxy)phenyl)cyclohexyl)oxy)-1H-1,2,3-triazole-5-carboxylate] |  | > 6.00 | 
O=C(O)c1[nH]nnc1O[C@H]1CC[C@H](c2ccc(N3CCCCC3)c(Cl)c2)CC1 [Compound 441, 4-(((trans)-4-(3-chloro-4-(piperidin-1-yl)phenyl)cyclohexyl)oxy)-1H-1,2,3-triazole-5-carboxylic acid 2,2,2-trifluoroacetate] |  |  | > 7.00
O=C(O)c1[nH]nnc1Oc1ccc(Cl)c(OC2CC2)c1 [Compound 445, 4-(4-chloro-3-cyclopropoxyphenoxy)-1H-1,2,3-triazole-5-carboxylic acid] |  |  | > 7.00
OCc1[nH]nnc1Oc1ccc(-c2ccc(OC(F)(F)F)cc2)cc1 [Compound 487, (4-((4′-(trifluoromethoxy)-[1,1′-biphenyl]-4-yl)oxy)-1H-1,2,3-triazol-5-yl)methanol] | 5.30 to 6.00 | 5.30 to 6.00 | 
OCc1[nH]nnc1O[C@H]1CC[C@H](c2ccc(OC(F)(F)F)cc2)CC1 [Compound 488, (4-(((trans)-4-(4-(trifluoromethoxy)phenyl)cyclohexyl)oxy)-1H-1,2,3-triazol-5-yl)methanol] | 5.30 to 6.00 | > 6.00 | 
OCc1[nH]nnc1S[C@H]1CC[C@@H](c2ccc(OC(F)(F)F)cc2)CC1 [Compound 489, (4-(((cis)-4-(4-(trifluoromethoxy)phenyl)cyclohexyl)thio)-1H-1,2,3-triazol-5-yl)methanol] | 5.30 to 6.00 |  | 
O=Cc1[nH]nnc1O[C@H]1CC[C@H](c2ccc(OC(F)(F)F)cc2)CC1 [Compound 490, 4-(((trans)-4-(4-(trifluoromethoxy)phenyl)cyclohexyl)oxy)-1H-1,2,3-triazole-5-carbaldehyde] | > 6.00 | > 6.00 | 
O=Cc1[nH]nnc1Oc1ccc(-c2ccc(OC(F)(F)F)cc2)cc1 [Compound 491, 4-((4′-(trifluoromethoxy)-[1,1′-biphenyl]-4-yl)oxy)-1H-1,2,3-triazole-5-carbaldehyde] | > 6.00 | > 6.00 | 

Next, values leading:

pIC50 [1] | pIC50 [2] | pIC50 [3] | Compound
< 5.00 | > 6.00 |  | OCc1[nH]nnc1Sc1ccc(-c2ccc(N3CCCCC3)cc2)cc1 [Compound 492, (4-((4′-(piperidin-1-yl)-[1,1′-biphenyl]-4-yl)thio)-1H-1,2,3-triazol-5-yl)methanol]
5.30 to 6.00 | > 6.00 |  | OCc1[nH]nnc1Oc1ccc(-c2ccc(Cl)c(Cl)c2)cc1 [Compound 493-1, (4-((3′,4′-dichloro-[1,1′-biphenyl]-4-yl)oxy)-1H-1,2,3-triazol-5-yl)methanol]
5.30 to 6.00 |  |  | OCc1[nH]nnc1Oc1ccc(-c2ccc(Cl)cc2)cc1 [Compound 493-2, (4-((4′-chloro-[1,1′-biphenyl]-4-yl)oxy)-1H-1,2,3-triazol-5-yl)methanol]
5.00 to 5.30 |  |  | OCc1[nH]nnc1OC1CCN(c2cc(Cl)cc(Cl)c2)CC1 [Compound 494, (4-((1-(3,5-dichlorophenyl)piperidin-4-yl)oxy)-1H-1,2,3-triazol-5-yl)methanol]
< 5.00 |  |  | OCc1[nH]nnc1SC1CCN(c2cc(Cl)cc(Cl)c2)CC1 [Compound 495, (4-((1-(3,5-dichlorophenyl)piperidin-4-yl)thio)-1H-1,2,3-triazol-5-yl)methanol]
> 6.00 | > 6.00 |  | OCc1nn[nH]c1Oc1ccc(-c2ccc(N3CCCCC3)cc2)cc1 [Compound 496, (4-((4′-(piperidin-1-yl)-[1,1′-biphenyl]-4-yl)oxy)-1H-1,2,3-triazol-5-yl)methanol]
< 5.00 |  |  | OCc1[nH]nnc1Sc1ccc(-c2ccc(OC(F)(F)F)cc2)cc1 [Compound 497, (4-((4′-(trifluoromethoxy)-[1,1′-biphenyl]-4-yl)thio)-1H-1,2,3-triazol-5-yl)methanol]
 |  | > 7.00 | O=C(O)c1[nH]nnc1COC1CCN(c2cc(Cl)cc(Cl)c2)CC1 [Example 477, 4-(((1-(3,5-dichlorophenyl)piperidin-4-yl)oxy)methyl)-1H-1,2,3-triazole-5-carboxylic acid]
 |  | 6.00 to 7.00 | O=C(O)c1[nH]nnc1COC1CCN(c2cc(Cl)ccc2Cl)CC1 [Example 481, 4-(((1-(2,5-dichlorophenyl)piperidin-4-yl)oxy)methyl)-1H-1,2,3-triazole-5-carboxylic acid]
